Where a name gives a salt, the structure may show the parent alone. Read-outs that look alike come from different tables or passages of the source.

This passage reports Km results from PMC8017616, “Discovery of two novel laccase-like multicopper oxidases from Pleurotus citrinopileatus and their application in phenolic oligomer synthesis” (Biotechnology for Biofuels, 2021).

Holding throughout (details): 50 mM phosphate-citrate buffer pH 4; routine assay 35 °C
Assay [1] deals with T1, PcLac1.
T1 construct: native, purified from culture supernatant (Q Sepharose, DEAE Sepharose); 60 kDa by SDS-PAGE
Nature of the assay: spectrophotometric oxidation at […] nm, nonlinear Michaelis-Menten fit. The format is biochemical, Pleurotus citrinopileatus.

The subject of assay [2] is T2, PcLac2.
T2 construct: native, purified from culture supernatant (Q Sepharose, DEAE Sepharose); about 75 kDa by SDS-PAGE; band also holds a copper radical oxidase-like protein
The assay is described as above. It is filed as biochemical, Pleurotus citrinopileatus.

Assay [3] deals with PcLac2.
In assay [4] the test system is PcLac1.

One may read the Km as the concentration of substrate that gives half-maximal velocity. For the compound `COc1cccc(OC)c1O` [2,6-DMP, 2,6-dimethoxyphenol], the results for the Km in assay [1] and in assay [2] were 672 ± 56 µM and 1070 ± 105 µM, respectively.
`CCn1c(=NN=c2sc3cc(S(=O)(=O)O)ccc3n2CC)sc2cc(S(=O)(=O)O)ccc21` [ABTS, 2,2′-Azino-bis-(3-ethylbenzthioazoline-6-sulfonic acid) diammonium salt]: the results for the Km in assay [3] and in assay [4] were 165 ± 15 µM and 60 ± 7 µM, respectively.
